Source: BigSolDB 2.1

O=[N+]([O-])c1ccc(Oc2ccc([N+](=O)[O-])cc2)cc1
solubility (mole fraction)
Conditions | 283.15 K | 288.15 K | 293.15 K | 298.15 K | 303.15 K | 308.15 K | 313.15 K | 318.15 K | 323.15 K
in acetonitrile | 0.00446 | 0.00587 | 0.00682 | 0.00926 | 0.0104 | 0.0129 | 0.0158 | 0.0195 | 0.0241
in anisole | 0.0243 | 0.0293 | 0.0339 | 0.0395 | 0.0444 | 0.0547 | 0.0647 | 0.0746 | 0.0893
in ethanol | 0.00035 | 0.000369 | 0.000418 | 0.000531 | 0.000631 | 0.000807 | 0.00102 | 0.00124 | 0.0015
in ethyl acetate | 0.0133 | 0.015 | 0.0172 | 0.0206 | 0.0228 | 0.0266 | 0.0316 | 0.036 | 0.0422
in isopropanol | 0.000139 | 0.000199 | 0.000222 | 0.000322 | 0.000394 | 0.000538 | 0.000779 | 0.000996 | 0.00136
in methanol | 0.000259 | 0.000329 | 0.000376 | 0.000525 | 0.000637 | 0.000804 | 0.00095 | 0.00115 | 0.00145
in n-butanol | 0.000203 | 0.000337 | 0.00049 | 0.000661 | 0.000826 | 0.00111 | 0.00144 | 0.00183 | 0.00241
